{
  "source": "patent US7993683B2",
  "about": "“Compositions for the treatment of chronic degenerative inflammatory conditions” (Indena S.p.A., priority 2006, dated 2011)",
  "origin": "cited, not measured here",
  "key": {"[1]": {"system": "pro-inflammatory cytokines"}, "[2]": {"system": "TNF-induced enhancement of endothelial monocyte adesion", "details": "added to endothelial cell culture together with tumour necrosis factor (TNF)"}},
  "data": [
    {"smiles": "C=C1CC[C@@H]2[C@](C)(CO)[C@H](O)CC[C@@]2(C)[C@@H]1C/C=C1/C(=O)OC[C@H]1O", "note": "[andrographolide]", "values": [
      {"measurement": "synthesis of pro-inflammatory cytokines", "setting": "[1]", "value": "inhibits"},
      {"measurement": "TNF-induced enhancement of endothelial monocyte adesion", "setting": "[2]", "value": "concentration depended reduction"}
    ]}
  ]
}
